According to patent US20050026950A1, “Methods of therapeutic treatment using retinoids to achieve consistent bioavailability” (Allergan, Inc., priority 2003, published 2005):

Tests used:
Format in all cases: in vivo, human
[1] = Two placebo-controlled 24-week safety studies of oral tazarotene plus 16- to 24-week dose-response evaluations
Description: Two multicenter, double-blind, randomized, placebo-controlled 24-week studies of identical design are conducted to evaluate the safety of oral tazarotene. In addition, 16- to 24-week dose-response evaluations are performed.
In the two safety trials, the incidence of adverse side effects with a 4.5 mg dose administered orally once daily is compared to the incidence of the same side effects with a placebo. […] The majority of these were mild in severity and typical of adverse effects associated with oral retinoids.

[2] = tested on: moderate to very severe plaque psoriasis; assay: Open-label extension study of oral tazarotene in plaque psoriasis non-responders
[3] = Studies of orally administered tazarotene for acne, adverse event monitoring; settings: combined data from Studies 1 and 2 (N = 223)
Description: Studies are conducted on orally administered tazarotene for the treatment of acne. Adverse events (side effects) are monitored.

severe psoriasis = assay: Patient with severe psoriasis taking Ortho-Novum treated with tazarotene; settings: 6 mg per day, after 30 days
Text: The patient presents symptoms of severe psoriasis. The symptoms include lesions approximately 4 to 10 centimeters across appearing as raised patches of wine red skin many of which are covered in silvery white scales. The lesions are mostly dry and rough, and quite often noticeably warm to the touch. The lesions are present on the elbows, knees, scalp, and groin area. The patient experiences intense burning and itching associated with the lesions.
The patient is currently taking Ortho-Novum® for contraception.
Tazarotene at a dose of 6 mg per day is prescribed.

severe nodulocystic acne = assay: Multicenter double-blind placebo-controlled study of oral tazarotene in severe nodulocystic acne; settings: for patients withdrawing due to adverse events: treatment period
Text: A multicenter, double-blind, randomized, placebo-controlled parallel-group study is undertaken to determine the efficacy of orally administered tazarotene in treating severe nodulocystic acne.
In addition, washout periods for other medications for this study are: 1 week for vitamin A supplements >5000 IU; 2 weeks for topical anti-acne medications (e.g., retinoids, azelaic acid, benzoyl peroxide); 2 weeks for topical or systemic antibiotic therapy that may alter the course of acne; and 6 months for systemic retinoids.
Patients are randomized to receive placebo or oral tazarotene (0.75, 1.5, 3, or 6 mg), in a 1:1:1:1:1 ratio once daily for 24 weeks. After this, the patients are followed without treatment for an additional 12 weeks. Patients discontinuing from the treatment period due to adverse effects or lack of efficacy are eligible for entry into the post-treatment phase.
In the study, overall acne severity is rated as: none (no inflammatory acne lesions); mild (few to several papules or pustules, no nodulocystic lesions); moderate (several to many papules or pustules, few to several nodulocystic lesions); and severe (numerous or extensive papules or pustules, many, for example, at least about 5 or at least about 10, nodulocystic lesions).
Treatment success is defined as at least moderate (about 50%) improvement on the following 7-point global response scale: • 0=completely cleared • 1=almost cleared (about 90% improvement) • 2=marked response (about 75% improvement) • 3=moderate response (about 50% improvement) • 4=slight response (about 25% improvement) • 5=condition unchanged • 6=condition worsened
In this study, facial nodulocystic lesion count includes lesions greater than 5 mm in size. Facial papular/pustular lesion count includes lesions less than or equal to 5 mm in size. Facial non-inflammatory lesion count includes open and closed comedones.
Sebum output is assessed every 4 weeks at selected centers using the Sebutape® patches, sold by Cuderm Corporation. Urinalysis, chemistry, and hematology values are monitored. Bone formation and resorption assessments (serum bone alkaline phosphatase and serum amino terminal telopeptides, respectively) at selected centers are monitored.
Bone mineral density of spine and proximal femur at selected centers is monitored. Ligament calcification or osteophyte formation (lateral X-ray of the cervical and thoracic spine, and ankle calcaneous) is monitored. Epiphyseal growth plate closure (internal oblique X-ray of the ankle in patients less than or equal to 21 years old) is monitored.

[4] = 4.5 mg orally once daily, two safety trials
[5] = 4.5 mg once daily, 12-week extension
[6] = 4.5 mg once daily, 12-week extension, across both groups
[7] = 0.75 to 6 mg once daily, 24 weeks

changes in liver function test values or cholesterol levels [2, 5]: no clinically significant changes | bone formation and resorption (serum bone alkaline phosphatase, amino terminal telopeptides) (severe nodulocystic acne; [7]): do not appear to be altered
Compound: CCOC(=O)c1ccc(C#Cc2ccc3c(c2)C(C)(C)CCS3)nc1 [tazarotene]
incidence of agitation ([1]; 4.5 mg orally once daily): < 1% | incidence of altered hormone levels (TSH, T4, thyroid function test) ([1]; 4.5 mg orally once daily): 0% | incidence of anxiety ([1]; 4.5 mg orally once daily): 1% | incidence of depression ([1]; 4.5 mg orally once daily): 1% | incidence of emotional lability ([1]; 4.5 mg orally once daily): 3% | incidence of psychosis ([1]; 4.5 mg orally once daily): 0% | incidence of psychotic depression ([1]; 4.5 mg orally once daily): 0% | incidence of hypertriglyceridemia, hypercholesterolemia, abnormal liver function tests, increased ALT/AST, desquamation, eye dryness, alopecia ([1]; 4.5 mg orally once daily vs placebo): essentially the same incidence with oral tazarotene as with placebo | incidence of arthralgia [1, 4]: 17% | incidence of back pain [1, 4]: 7% | incidence of cheilitis [1, 4]: 66% | incidence of dermatitis [1, 4]: 1% | incidence of dry skin [1, 4]: 24% | incidence of foot pain [1, 4]: 3% | incidence of headache [1, 4]: 19% | incidence of hyperglycemia [1, 4]: 2% | incidence of joint disorder [1, 4]: 4% | incidence of myalgia [1, 4]: 14% | incidence of nasal dryness [1, 4]: 4% | incidence of rash [1, 4]: 3% | incidence of patients discontinuing due to adverse effects ([1]; 0.4 to 1.1 mg oral (n=105)): approximately 2% | incidence of patients discontinuing due to adverse effects ([1]; 2.1 to 2.8 mg oral (n=21)): 10% | serious adverse events related to study treatment [2, 5]: no serious adverse events considered related to the study treatment | incidence of arthralgia [2, 6]: 20% | incidence of asthenia [2, 6]: 6% | incidence of back pain [2, 6]: 11% | incidence of cheilitis [2, 6]: 70% | incidence of dry skin [2, 6]: 25% | incidence of headache [2, 6]: 11% | incidence of hypertriglyceridemia [2, 6]: 6% | incidence of infection [2, 6]: 10% | incidence of myalgia [2, 6]: 15% | Clinical success (a 2-grade reduction in OLA), patients ([2]; end of the 12-week post-treatment period): 16% | Cheilitis [3]: 134 (60.1) number (%) of patients | Conjunctivitis [3]: 0 (0.0) number (%) of patients | Desquamation central face/Desquamation [3]: 1 (0.4) number (%) of patients | Dry Skin [3]: 79 (35.4) number (%) of patients | Dry nose [3]: 7 (3.1) number (%) of patients | Epistaxis [3]: 6 (2.7) number (%) of patients | Fingertip peeling/Desquamation [3]: 1 (0.4) number (%) of patients | Headache [3]: 26 (11.7) number (%) of patients | Irritation of eyes [3]: 0 (0.0) number (%) of patients | Joint pain/Arthralgia [3]: 18 (8.1) number (%) of patients | Peeling/Desquamation [3]: 1 (0.4) number (%) of patients | Pruritus [3]: 10 (4.5) number (%) of patients | Rash-dermatitis/Rash [3]: 7 (3.1) number (%) of patients | Red Scaly face/Desquamation [3]: 1 (0.4) number (%) of patients | Skin fragility/Skin disorder [3]: 1 (0.4) number (%) of patients | psoriasis symptoms and lesions (severe psoriasis): symptoms of itching and burning are relieved and the severity of their lesions are substantially lessened | patients withdrawing due to adverse events (severe nodulocystic acne; 0.75 mg group (2/35)): 6% | patients withdrawing due to adverse events (severe nodulocystic acne; 1.5 mg group (0/37)): 0% | incidence of treatment success vs placebo (severe nodulocystic acne; 3 mg and 6 mg, week 24 and post-treatment phase, p≦0.05): significantly higher incidence of treatment success | patients withdrawing due to adverse events (severe nodulocystic acne; 3 mg group (2/37)): 5% | patients withdrawing due to adverse events (severe nodulocystic acne; 6 mg group (1/36)): 3% | reduction of overall acne severity vs placebo (severe nodulocystic acne; 6 mg, week 16 until end of post-treatment phase, p≦0.01): significantly more than placebo | changes in urinalysis, chemistry, or hematology measures (liver function, triglycerides, total and HDL cholesterol) (severe nodulocystic acne; [7]): None of the treatment groups show any consistent clinically significant changes | ligament calcification, osteophyte formation, or changes in bone density (severe nodulocystic acne; [7]): None of the treatment groups show any clinically significant | percentage of patients with at least a 90% reduction in facial nodulocystic lesion count vs placebo (severe nodulocystic acne; 1.5, 3, and 6 mg groups, week 24): significantly greater | sebum secretion (Sebutape method) (severe nodulocystic acne; oral, 0.75 to 6 mg, vs placebo): does not substantially reduce sebum secretion relative to placebo | patients achieving treatment success (≧50% global improvement) (severe nodulocystic acne; three highest doses, by week 12): more than 70% | patients achieving treatment success (≧50% global improvement) (severe nodulocystic acne; two highest doses, by week 24): more than 86%
